The record followed here is PMC8345109, “Optimization of New Catalytic Topoisomerase II Inhibitors as an Anti-Cancer Therapy” (Cancers, 2021).

The target in one series is TOP2A (Homo sapiens, UniProt P11388). The experiment in a line: Supercoiled plasmid DNA relaxation assay, TOP2A. Conditions: 0.01-200 uM, three biological repeats. In kind it is biochemical. As for the experimental part:
Figure 2 T637 and T638 are TOP2A inhibitors. (A) K-DNA decatenation assays and (B) supercoiled plasmid DNA relaxation assays are used to measure TOP2A enzyme activity in the presence of 0.01–200 uM T637 or T638. Three biological repeats were performed with each concentration of the compounds, and the densitometry of the D-DNA bands from (A) and the SC bands from (B) was used to establish an inhibition curve for IC50 calculation.

A further series deals with T1, human TOP2A(431-1193) (Homo sapiens, UniProt P11388).
T1 construct: 6xHis (N); made in house; host or cells: E. coli BL21 (DE3)
T1 sequence (P11388 431-1193): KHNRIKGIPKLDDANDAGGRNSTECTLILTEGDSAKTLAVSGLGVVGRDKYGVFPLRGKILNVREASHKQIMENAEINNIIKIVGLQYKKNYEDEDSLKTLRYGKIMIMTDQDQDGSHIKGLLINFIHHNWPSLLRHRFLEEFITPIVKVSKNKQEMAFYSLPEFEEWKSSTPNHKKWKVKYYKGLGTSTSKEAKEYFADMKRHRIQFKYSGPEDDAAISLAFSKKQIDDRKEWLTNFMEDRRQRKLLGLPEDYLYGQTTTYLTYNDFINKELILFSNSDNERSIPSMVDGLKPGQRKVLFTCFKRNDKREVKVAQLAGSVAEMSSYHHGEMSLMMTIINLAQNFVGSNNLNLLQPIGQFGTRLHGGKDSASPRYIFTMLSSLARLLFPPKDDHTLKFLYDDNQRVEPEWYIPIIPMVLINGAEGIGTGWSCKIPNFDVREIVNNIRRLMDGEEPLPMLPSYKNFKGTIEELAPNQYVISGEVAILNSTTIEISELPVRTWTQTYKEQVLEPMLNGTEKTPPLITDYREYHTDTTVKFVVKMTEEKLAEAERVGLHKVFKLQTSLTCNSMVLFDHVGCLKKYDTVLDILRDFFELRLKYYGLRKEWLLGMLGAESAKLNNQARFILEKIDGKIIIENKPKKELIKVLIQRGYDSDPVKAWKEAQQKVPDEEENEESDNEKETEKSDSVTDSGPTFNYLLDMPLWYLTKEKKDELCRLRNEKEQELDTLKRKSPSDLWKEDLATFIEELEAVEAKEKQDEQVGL
The experiment in a line: EMSA, TOP2A(431-1193) with 5ZRF DNA oligo. In kind it is binding. The note with it: 2 uM protein, 300 nM oligo. Background: In EMSA bound probe runs differently from free probe, usually more slowly.

The next series is described as follows: in vitro. Conditions: mouse, liver microsomes, pH 7.4.
For series [1], the system named is cervical cancer line Hela. Nature of the series: Hela cell growth (Incucyte). Conditions: Homo sapiens, 120 h, read-out: Cell growth inhibition.
Experimental: (§2) (A) K562 cells were treated with 0, 0.5, 1, 5, 10, 15, and 20 uM of T60 or 0, 0.5, 1, 5, 10, 15, 20, 50, and 100 uM of T637 and T638 for 24, 48, or 72 h. […] (B) NCI-H446 small cell lung cancer line and Hela cervical cancer line were treated with 0, 0.5, 1, 5, 10, 15, and 20 uM of T60 or 0, 0.5, 1, 5, 10, 15, 20, 50, and 100 uM of T637 and T638 for five days. Cell growth rates were measured by using Incucyte^TM. (C) K562 cells were treated with 0, 5, 10, 15, and 20 uM of T60, T637, or T638 for 48 h. Cytotoxicity was evaluated by measuring the LDH levels from the culture media. (D) K562 cells were treated with the vehicle or 10–20 µM of etoposide, T60, T637, or T638 for 4 h. Immunoblotting measured p-H2AXγ levels in cells with vinculin as a loading control.
For a further series, the system named is K562 leukemia cells. Nature of the series: K562 cell proliferation (MTS assay). Conditions: K562, up to 100 uM.
Series [2] has as its target T2, full-length TOP2A (Homo sapiens, UniProt P11388). The experiment in a line: EMSA, full-length TOP2A with 5ZRF DNA oligo. Set-up: EMSA was performed by purified full-length TOP2A or TOP2B proteins. It is filed as binding. Conditions: 200 µM compound, 300 nM protein, 100 nM oligo. The protocol:
(§1) (A) EMSA was performed by purified full-length TOP2A or TOP2B proteins at a contraction of 300 nM with IRDay700 labeled 5ZRF DNA oligo at a concentration of 100 nM in the presence of −/+200 µM of ICRF193, T60, T637, and T638. […] Reactions were subjected to fluorescence […], which were detected by using the Multimode Microplate Reader (Infinite F500). (D) DNA cleavage assays were performed using full-length human TOP2A and TOP2B incubated with the supercoiled pHOT plasmid in the presence of 200 µM of etoposide plus 1, 100, or 200 µM of ICRF193, T60, T637, and T638. Reactions were separated on a DNA gel with ethidium bromide. All experiments were repeated three times, and one representative image was shown. Note: N, nicked DNA; L, linear DNA; and SC, supercoiled DNA.

In series [3] the target is T2, full-length TOP2A. Nature of the series: DNA cleavage assay, TOP2A. It is filed as biochemical. Set-up: DNA cleavage assays were performed using full-length human TOP2A and TOP2B. The note with it: 200 µM etoposide plus 1, 100 or 200 µM compound, pHOT plasmid. The protocol:
as §1

The target of the next series is full-length TOP2B (Homo sapiens, UniProt Q02880). Nature of the series: DNA cleavage assay, TOP2B. Set-up: DNA cleavage assays were performed using full-length human TOP2A and TOP2B. It is filed as biochemical. Conditions: 200 µM etoposide plus 1, 100 or 200 µM compound, pHOT plasmid. As for the experimental part:
as §1

T2 sequence (P11388 whole entry): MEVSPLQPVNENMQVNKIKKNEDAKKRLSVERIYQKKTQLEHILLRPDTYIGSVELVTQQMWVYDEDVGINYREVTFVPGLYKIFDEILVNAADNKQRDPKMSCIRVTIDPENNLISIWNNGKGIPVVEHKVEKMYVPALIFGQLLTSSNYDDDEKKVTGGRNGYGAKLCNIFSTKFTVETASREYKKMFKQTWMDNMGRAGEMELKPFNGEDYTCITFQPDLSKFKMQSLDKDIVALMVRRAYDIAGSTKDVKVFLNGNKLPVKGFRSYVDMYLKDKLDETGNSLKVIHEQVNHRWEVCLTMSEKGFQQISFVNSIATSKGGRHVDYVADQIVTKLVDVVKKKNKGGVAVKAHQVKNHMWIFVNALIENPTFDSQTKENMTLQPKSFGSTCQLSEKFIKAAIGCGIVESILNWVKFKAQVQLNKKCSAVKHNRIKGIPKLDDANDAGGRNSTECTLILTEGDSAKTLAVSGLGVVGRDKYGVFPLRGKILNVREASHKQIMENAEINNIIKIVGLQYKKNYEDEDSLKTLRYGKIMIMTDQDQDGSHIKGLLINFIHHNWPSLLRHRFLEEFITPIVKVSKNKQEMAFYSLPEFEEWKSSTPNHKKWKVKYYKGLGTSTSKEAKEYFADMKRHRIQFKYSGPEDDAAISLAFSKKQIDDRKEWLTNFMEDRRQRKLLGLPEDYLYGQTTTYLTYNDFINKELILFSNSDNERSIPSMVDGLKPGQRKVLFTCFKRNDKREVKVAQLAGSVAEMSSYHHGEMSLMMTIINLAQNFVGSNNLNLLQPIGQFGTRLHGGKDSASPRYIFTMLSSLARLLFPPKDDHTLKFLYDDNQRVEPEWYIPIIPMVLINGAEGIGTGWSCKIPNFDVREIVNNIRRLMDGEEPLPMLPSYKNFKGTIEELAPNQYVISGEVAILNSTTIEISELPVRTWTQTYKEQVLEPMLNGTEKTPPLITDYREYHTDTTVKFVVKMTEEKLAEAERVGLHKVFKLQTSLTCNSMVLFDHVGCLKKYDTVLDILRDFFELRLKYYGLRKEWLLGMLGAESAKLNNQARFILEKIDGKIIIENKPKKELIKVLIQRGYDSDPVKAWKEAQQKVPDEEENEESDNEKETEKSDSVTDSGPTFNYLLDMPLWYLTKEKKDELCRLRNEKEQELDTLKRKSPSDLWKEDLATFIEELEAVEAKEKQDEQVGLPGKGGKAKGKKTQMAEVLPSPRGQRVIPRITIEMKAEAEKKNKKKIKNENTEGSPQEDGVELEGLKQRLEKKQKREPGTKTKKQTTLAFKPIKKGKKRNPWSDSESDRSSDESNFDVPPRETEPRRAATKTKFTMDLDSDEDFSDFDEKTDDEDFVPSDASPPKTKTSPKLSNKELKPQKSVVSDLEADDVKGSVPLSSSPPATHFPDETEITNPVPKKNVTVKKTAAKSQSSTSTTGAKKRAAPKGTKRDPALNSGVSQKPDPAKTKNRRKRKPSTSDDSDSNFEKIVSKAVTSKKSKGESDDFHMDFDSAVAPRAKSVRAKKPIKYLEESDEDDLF
Sequence of full-length TOP2B (Q02880 whole entry): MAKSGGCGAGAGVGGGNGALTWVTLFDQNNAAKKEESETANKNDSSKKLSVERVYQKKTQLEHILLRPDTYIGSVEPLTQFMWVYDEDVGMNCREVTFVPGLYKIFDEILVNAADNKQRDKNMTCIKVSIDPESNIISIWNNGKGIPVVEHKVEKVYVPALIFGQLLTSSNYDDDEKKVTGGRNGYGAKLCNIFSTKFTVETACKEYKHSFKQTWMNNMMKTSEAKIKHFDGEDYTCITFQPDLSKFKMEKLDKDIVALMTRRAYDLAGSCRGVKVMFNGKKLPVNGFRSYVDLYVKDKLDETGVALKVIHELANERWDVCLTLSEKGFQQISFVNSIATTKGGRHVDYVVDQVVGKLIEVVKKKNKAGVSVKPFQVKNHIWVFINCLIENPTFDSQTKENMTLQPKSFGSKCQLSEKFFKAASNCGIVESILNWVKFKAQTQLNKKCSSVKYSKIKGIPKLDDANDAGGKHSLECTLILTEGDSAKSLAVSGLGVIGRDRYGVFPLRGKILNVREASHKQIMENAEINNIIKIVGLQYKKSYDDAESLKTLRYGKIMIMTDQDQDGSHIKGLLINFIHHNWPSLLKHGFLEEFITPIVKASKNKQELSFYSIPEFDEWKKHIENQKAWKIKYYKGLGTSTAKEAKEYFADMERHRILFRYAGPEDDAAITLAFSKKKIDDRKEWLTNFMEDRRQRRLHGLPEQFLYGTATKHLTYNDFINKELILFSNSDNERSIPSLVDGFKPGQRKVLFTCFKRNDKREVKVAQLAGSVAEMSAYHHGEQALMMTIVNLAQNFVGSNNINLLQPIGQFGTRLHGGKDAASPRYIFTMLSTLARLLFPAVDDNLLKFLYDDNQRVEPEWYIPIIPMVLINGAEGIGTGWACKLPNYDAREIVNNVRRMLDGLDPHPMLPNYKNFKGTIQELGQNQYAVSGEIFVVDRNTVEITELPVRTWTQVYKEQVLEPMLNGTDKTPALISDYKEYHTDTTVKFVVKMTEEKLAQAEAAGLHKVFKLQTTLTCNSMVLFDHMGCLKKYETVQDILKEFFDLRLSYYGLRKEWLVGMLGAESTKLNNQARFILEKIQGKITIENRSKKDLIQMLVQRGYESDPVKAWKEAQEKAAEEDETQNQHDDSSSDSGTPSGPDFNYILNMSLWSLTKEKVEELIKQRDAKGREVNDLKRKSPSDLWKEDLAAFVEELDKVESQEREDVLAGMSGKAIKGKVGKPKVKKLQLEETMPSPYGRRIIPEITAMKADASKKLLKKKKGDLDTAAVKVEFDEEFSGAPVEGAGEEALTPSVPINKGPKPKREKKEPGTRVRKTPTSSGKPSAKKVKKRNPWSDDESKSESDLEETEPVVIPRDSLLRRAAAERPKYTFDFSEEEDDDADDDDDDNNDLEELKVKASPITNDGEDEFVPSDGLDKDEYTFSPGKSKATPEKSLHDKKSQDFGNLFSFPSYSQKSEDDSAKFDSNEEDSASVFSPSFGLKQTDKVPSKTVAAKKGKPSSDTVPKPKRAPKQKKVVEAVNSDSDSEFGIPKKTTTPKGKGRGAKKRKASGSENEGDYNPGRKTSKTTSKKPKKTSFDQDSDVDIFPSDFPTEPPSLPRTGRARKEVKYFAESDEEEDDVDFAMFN
Sequence of TOP2A (P11388 whole entry): as the sequence (P11388 whole entry) above
Experimental for K562 leukemia cells: as §2
Experimental for in vitro: The reaction was initiated by adding NADPH, followed by incubation at 37 °C. […] The samples were then vortexed and centrifuged at 16,000 rpm for 10 min at 4 °C. The supernatants were collected and analyzed by LC/MS/MS to determine the remaining percentage and the half-life (t1/2) by integrating compound peaks and fitting the resulting AUC values and time points to a one-phase decay equation.

The IC50 is the point on the concentration scale where inhibition reaches its midpoint. Read a low IC50 as greater potency in that assay. The half-life is the time in which the quantity being followed falls by half. For orientation: microsomal CLint means a measure of how fast metabolising enzymes remove a compound, apart from limits set by blood flow. The inhibition is the change of the read-out against control, counted positive when it falls. The compound `Nc1cc(Nc2ccccc2)ccc1NC(=O)c1ccc[nH]c1=S` [T638] returned an IC50 against TOP2A of 2.1 µM. In addition, the “Inhibition of TOP2A(431-1193)-DNA interaction (EMSA)” value on human TOP2A(431-1193) is given as “inhibited TOP2A–DNA interaction dose-dependently”. In “in vitro”, this compound displayed a half-life at 1 uM above 16.7 h and a microsomal CLint at 1 uM of 2 µL/min/mg. For the same compound, the inhibition at 100 µM in series [1] came to 100%. In the series on K562 leukemia cells (48 h), the “Maximum cell proliferation inhibition” value is given as 100%. In addition, the “Maximum cell proliferation inhibition” value with K562 leukemia cells (72 h) was 100%. Besides, on full-length TOP2A [2], the “Block of TOP2A-DNA oligo complex formation (EMSA)” value is “block”. Besides, at full-length TOP2A [3], the “Prevention of etoposide-induced DNA cleavage, TOP2A” value is reported as “did prevent etoposide-induced DNA cleavage”. Besides, the “Prevention of etoposide-induced DNA cleavage, TOP2B” value on full-length TOP2B is reported as “did prevent etoposide-induced DNA cleavage”.
